# Assay results from the supplement of paper PMC10307832.
# Experiments:
# Assay in all cases: relative viability (nuclei count vs DMSO), 5 days (fraction); higher = more cells survive
# Kobe2602 + Foretinib = compound: C1=CC(=CC=C1NC(=S)NNC2=C(C=C(C=C2[N+](=O)[O-])C(F)(F)F)[N+](=O)[O-])F [Kobe2602] + COc1cc2c(Oc3ccc(NC(=O)C4(C(=O)Nc5ccc(F)cc5)CC4)cc3F)ccnc2cc1OCCCN1CCOCC1 [Foretinib] (partner 0.25 µM)
# How it was run: (§1)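 Nuclei were stained with Hoechst during a one-step fixation (final 0.05% Triton X-100, 1% formaldehyde, 1 ug/ml Hoechst) carried out 5 days after dosing, then counted on 4× images. The cells, lung cancer lines in 1536-well plates, had been dosed by pin tool the day after seeding with one drug alone or a fixed anchor-drug dose plus five library-drug doses (not always all listed) in √10 steps. Relative viability is the nuclei count in treated wells divided by that in vehicle wells, and each value is the median of duplicate plates.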
# Zosuquidar + Vorinostat = compound: O[C@@H](COc1cccc2ncccc12)CN1CCN([C@@H]2c3ccccc3[C@@H]3[C@H](c4ccccc42)C3(F)F)CC1 [Zosuquidar] + O=C(CCCCCCC(=O)Nc1ccccc1)NO [Vorinostat] (partner 1 µM)
# How it was run: as §1
# [1] = compound: COc1cc2nccc(Oc3ccc(NC(=O)C4(C(=O)Nc5ccc(F)cc5)CC4)cc3)c2cc1OC [Cabozantinib] + Cc1cc(Nc2cc(N3CCN(C)CC3)nc(Sc3ccc(NC(=O)C4CC4)cc3)n2)n[nH]1 [Tozasertib] (partner 0.1 µM)
# How it was run: as §1
# Kobe2602 + Bortezomib = compound: C1=CC(=CC=C1NC(=S)NNC2=C(C=C(C=C2[N+](=O)[O-])C(F)(F)F)[N+](=O)[O-])F [Kobe2602] + CC(C)C[C@H](NC(=O)[C@H](Cc1ccccc1)NC(=O)c1cnccn1)B(O)O [Bortezomib] (partner 0.002 µM)
# How it was run: as §1
Cell Line,relative viability (Kobe2602 + Foretinib; first compound 0.2 µM),relative viability (Kobe2602 + Foretinib; first compound 0.6325 µM),relative viability (Kobe2602 + Foretinib; first compound 2 µM),relative viability (Kobe2602 + Foretinib; first compound 6.325 µM),relative viability (Kobe2602 + Foretinib; first compound 20 µM),relative viability (Zosuquidar + Vorinostat; first compound 0.01 µM),relative viability (Zosuquidar + Vorinostat; first compound 0.03162 µM),relative viability (Zosuquidar + Vorinostat; first compound 0.1 µM),relative viability (Zosuquidar + Vorinostat; first compound 0.3162 µM),relative viability (Zosuquidar + Vorinostat; first compound 1 µM),relative viability ([1]; first compound 0.02 µM),relative viability ([1]; first compound 0.06325 µM),relative viability ([1]; first compound 0.2 µM),relative viability ([1]; first compound 2 µM),relative viability (Kobe2602 + Bortezomib; first compound 0.2 µM),relative viability (Kobe2602 + Bortezomib; first compound 0.6325 µM),relative viability (Kobe2602 + Bortezomib; first compound 2 µM),relative viability (Kobe2602 + Bortezomib; first compound 6.325 µM),relative viability (Kobe2602 + Bortezomib; first compound 20 µM),relative viability ([1]; first compound 0.6325 µM)
NCI-H2347,1.32,1.38,0.83,0.63,0.868,0.531,0.713,0.499,0.615,0.56,0.572,0.526,0.575,0.392,1.16,1.01,0.879,0.827,1.44,–
NCI-H2405,1.05,1.04,1.01,1.06,1.07,1.07,0.963,1.01,1.05,0.31,0.743,0.856,0.777,0.667,1.05,0.999,0.936,0.968,0.999,0.789
NCI-H3122,0.969,0.88,0.967,0.925,0.967,0.984,1.03,0.894,1.07,1.07,0.412,0.431,0.385,0.458,1.09,0.96,0.93,1.04,1.08,0.42
PC-3 [JPC-3],1.02,1.18,0.994,1.03,1.07,0.817,0.91,0.589,0.916,0.416,0.928,1.04,–,0.861,0.905,0.812,0.766,0.871,0.795,0.938
PC-14,0.962,0.968,0.922,0.939,0.911,0.826,0.673,0.721,0.831,0.761,0.656,0.668,–,0.526,0.814,0.848,0.818,0.837,0.859,0.547
RERF-LC-KJ,0.878,0.952,0.828,0.777,0.763,0.728,0.707,0.694,0.772,0.683,0.588,0.51,0.505,0.412,1.11,1.15,1.15,1.15,1.15,0.438
SK-LU-1,0.78,0.911,0.81,0.834,0.872,0.828,0.829,0.839,0.926,0.761,0.414,0.371,0.378,0.299,1.38,1.55,1.18,1.37,1.61,0.342
SW 1573,1.02,0.873,0.998,1,1.18,0.584,0.831,1.23,0.851,0.928,0.149,0.146,0.18,0.177,1.21,0.967,1.06,0.945,1.18,0.148
